For 14 compounds, T/C results are on record in PubChem BioAssay AID248 (DTP/NCI, 2004).

The experiment relates to L1210 leukemia ip in BDF1 mice, survival T/C. Kind of experiment: NCI In Vivo Anticancer Drug Screen. Data for tumor model L1210 Leukemia (intraperitoneal) in B6D2F1 (BDF1) mice. The following applies: endpoint: mean survival time, higher = longer survival. The method in brief:
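Transplantable tumor model; survival measured in treated vs vehicle control mice. Value = treated/control.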

The mark [1] stands for this setting: dose: 100.0 mg/kg/injection, schedule: Q04DX002 (ip), vehicle: Klucel (hydroxypropylcellulose) (HPC).
Where [2] appears, read: dose: 200.0 mg/kg/injection, schedule: Q04DX002 (ip), vehicle: Klucel (hydroxypropylcellulose) (HPC).
Where [3] appears, read: dose: 75.0 mg/kg/injection, schedule: Q01DX001 (ip), vehicle: saline.
The mark [4] stands for this setting: dose: 150.0 mg/kg/injection, schedule: Q01DX001 (ip), vehicle: saline.
The mark [5] stands for this setting: dose: 300.0 mg/kg/injection, schedule: Q01DX001 (ip), vehicle: saline.
Where [6] appears, read: dose: 100.0 mg/kg/injection, schedule: Q04DX003 (ip), vehicle: Klucel (hydroxypropylcellulose) (HPC).
Setting [7] is: dose: 200.0 mg/kg/injection, schedule: Q04DX003 (ip), vehicle: Klucel (hydroxypropylcellulose) (HPC).

Several values for one entry are separate records, joined by “and”; a condition that tells them apart may be missing. Equal entries are not always repeated. Toxic doses and inconclusive results are not listed.

For the compound `CC(=O)NCC(C)OC(C)=O` (stereo not given), the T/C (dose: 100.0 mg/kg/injection, schedule: Q01DX009 (ip), vehicle: saline) is 104 % of control; the T/C (dose: 200.0 mg/kg/injection, schedule: Q01DX009 (ip), vehicle: saline) is 97 % of control; the T/C (dose: 400.0 mg/kg/injection, schedule: Q01DX009 (ip), vehicle: saline) is 97 % of control.

For `CS(=O)(=O)OC1COC(c2ccccc2)OC1C1OC(c2ccccc2)OCC1OS(C)(=O)=O` (stereo not given), the T/C is, setting by setting: (dose: 50.0 mg/kg/injection, schedule: Q04DX002 (ip), vehicle: Klucel (hydroxypropylcellulose) (HPC)) 98 % of control; under setting [1], 98 % of control; under setting [2], 109 % of control.

`CCOC(=O)NNOC(=O)CC`: the T/C is 92 % of control (dose: 100.0 mg/kg/injection, schedule: Q01DX001 (ip), vehicle: saline with Tween-80) and 95 % of control (dose: 200.0 mg/kg/injection, schedule: Q01DX001 (ip), vehicle: saline with Tween-80).

Turning to `CC/C(=N\NS(=O)(=O)c1ccc(C)cc1)C(C)C`, the T/C runs as follows: under setting [3], 95 % of control; (dose: 75.0 mg/kg/injection, schedule: Q04DX003 (ip), vehicle: saline) 91 % of control; under setting [4], 95 % of control; (dose: 150.0 mg/kg/injection, schedule: Q04DX003 (ip), vehicle: saline) 100 % of control; under setting [5], 97 % of control; (dose: 300.0 mg/kg/injection, schedule: Q04DX003 (ip), vehicle: saline) 96 % of control.

Turning to `NNC(=O)CNc1ccc(F)c(C(F)(F)F)c1`, the T/C runs as follows: under setting [1], 107 % of control; under setting [2], 118 % of control.

Take `O=S(=O)(Nc1cc(S(=O)(=O)c2ccccc2)c(NS(=O)(=O)c2ccccc2)cc1Cl)c1ccccc1`: the T/C runs as follows: under setting [6], 88 % of control; (dose: 200.0 mg/kg/injection, schedule: Q01DX009 (ip), vehicle: Klucel (hydroxypropylcellulose) (HPC)) 92 % of control; under setting [7], 88 % of control; (dose: 400.0 mg/kg/injection, schedule: Q01DX009 (ip), vehicle: Klucel (hydroxypropylcellulose) (HPC)) 87 % of control.

As to `CC1C(=O)C(Br)C2CC(O)CCC2(C)C1C` (stereo not given), the T/C runs as follows: under setting [3], 100 % of control; under setting [4], 94 % of control; under setting [5], 89 % of control.

As for `O=Cc1cc(=O)[nH]c(NC(=O)C(Cl)Cl)n1`, the T/C runs as follows: (dose: 100.0 mg/kg/injection, schedule: Q01DX001 (ip), vehicle: saline) 101 % of control; (dose: 200.0 mg/kg/injection, schedule: Q01DX001 (ip), vehicle: saline) 104 % of control; (dose: 400.0 mg/kg/injection, schedule: Q01DX001 (ip), vehicle: saline) 89 % of control.

In the case of `CC(C)c1ccc(C2(C)CCCCC2=O)cc1` (stereo not given), the T/C runs as follows: (dose: 100.0 mg/kg/injection, schedule: Q01DX001 (ip), vehicle: other) 101 % of control; (dose: 200.0 mg/kg/injection, schedule: Q01DX001 (ip), vehicle: other) 103 % of control; (dose: 400.0 mg/kg/injection, schedule: Q01DX001 (ip), vehicle: other) 93 % of control.

With `CC(C(O)c1ccccc1)C(O)(C(F)(F)Cl)C(F)(F)Cl` (stereo not given), the T/C is, setting by setting: (dose: 100.0 mg/kg/injection, schedule: Q01DX001 (ip), vehicle: Klucel (hydroxypropylcellulose) (HPC)) 102 % of control; under setting [6], 98 % of control; (dose: 200.0 mg/kg/injection, schedule: Q01DX001 (ip), vehicle: Klucel (hydroxypropylcellulose) (HPC)) 102 % of control; under setting [7], 88 % of control; (dose: 400.0 mg/kg/injection, schedule: Q01DX001 (ip), vehicle: Klucel (hydroxypropylcellulose) (HPC)) 107 % of control; (dose: 400.0 mg/kg/injection, schedule: Q04DX003 (ip), vehicle: Klucel (hydroxypropylcellulose) (HPC)) 114 % of control.

Regarding `CC(C)c1nc2c(=O)[nH]cnc2o1`, the T/C (dose: 25.0 mg/kg/injection, schedule: Q01DX005 (ip), vehicle: saline) is 105 % of control; the T/C (dose: 50.0 mg/kg/injection, schedule: Q01DX005 (ip), vehicle: saline) is 107 % of control; the T/C (dose: 100.0 mg/kg/injection, schedule: Q01DX005 (ip), vehicle: saline) was 95 % of control and 102 % of control; the T/C (dose: 200.0 mg/kg/injection, schedule: Q01DX005 (ip), vehicle: saline) is 100 % of control.

On to `CC[n+]1ccc(-c2ccc(NC(=O)c3ccc(C(=O)Nc4ccc(-c5cc[n+](CC)cc5)cc4)cc3)cc2)cc1`, for which the T/C was 224 % of control (dose: 2.5 mg/kg/injection, schedule: Q01DX015 (ip), vehicle: carboxymethylcellulose (CMC)); 118 % of control (dose: 3.7 mg/kg/injection, schedule: Q01DX001 (ip), vehicle: carboxymethylcellulose (CMC)); 157 % of control (dose: 5.0 mg/kg/injection, schedule: Q01DX015 (ip), vehicle: carboxymethylcellulose (CMC)); 176 % of control (dose: 7.5 mg/kg/injection, schedule: Q01DX001 (ip), vehicle: carboxymethylcellulose (CMC)); 123 % of control (dose: 10.0 mg/kg/injection, schedule: Q01DX015 (ip), vehicle: carboxymethylcellulose (CMC)); 163 % of control (dose: 15.0 mg/kg/injection, schedule: Q01DX001 (ip), vehicle: carboxymethylcellulose (CMC)). Besides, the T/C (dose: 20.0 mg/kg/injection, schedule: Q01DX015 (ip), vehicle: carboxymethylcellulose (CMC)) was 94 % of control; the T/C (dose: 30.0 mg/kg/injection, schedule: Q01DX001 (ip), vehicle: carboxymethylcellulose (CMC)) is 177 % of control and 194 % of control; the T/C (dose: 30.0 mg/kg/injection, schedule: Q01DX015 (ip), vehicle: carboxymethylcellulose (CMC)) is 86 % of control; the T/C (dose: 40.0 mg/kg/injection, schedule: Q01DX001 (ip), vehicle: carboxymethylcellulose (CMC)) was 192 % of control and 296 % of control; the T/C (dose: 60.0 mg/kg/injection, schedule: Q01DX001 (ip), vehicle: carboxymethylcellulose (CMC)) was 211 % of control and 305 % of control and 307 % of control; the T/C (dose: 90.0 mg/kg/injection, schedule: Q01DX001 (ip), vehicle: carboxymethylcellulose (CMC)) was 157 % of control and 228 % of control. Besides, the T/C was 103 % of control (dose: 150.0 mg/kg/injection, schedule: Q01DX001 (ip), vehicle: carboxymethylcellulose (CMC)) and 91 % of control (dose: 225.0 mg/kg/injection, schedule: Q01DX001 (ip), vehicle: carboxymethylcellulose (CMC)).

Turning to `N=C(N)c1ccc(OCCCCCCOc2ccc(C(=N)N)cc2I)cc1`, the T/C is 103 % of control (dose: 6.25 mg/kg/injection, schedule: Q01DX Z (oral), vehicle: saline); 103 % of control (dose: 12.5 mg/kg/injection, schedule: Q01DX Z (oral), vehicle: saline); 97 % of control (dose: 25.0 mg/kg/injection, schedule: Q01DX Z (oral), vehicle: saline); 101 % of control (dose: 50.0 mg/kg/injection, schedule: Q01DX Z (oral), vehicle: saline); 100 % of control (dose: 100.0 mg/kg/injection, schedule: Q01DX Z (oral), vehicle: saline); 100 % of control (dose: 200.0 mg/kg/injection, schedule: Q01DX Z (oral), vehicle: saline).

Take `CC(C)CC1NC(=O)C(Cc2ccc(OCc3ccccc3)cc2)NC1=O` (stereo not given): the T/C by setting is: (dose: 100.0 mg/kg/injection, schedule: Q01DX009 (ip), vehicle: saline with Tween-80) 102 % of control; (dose: 100.0 mg/kg/injection, schedule: Q04DX003 (ip), vehicle: saline) 104 % of control; (dose: 200.0 mg/kg/injection, schedule: Q01DX009 (ip), vehicle: saline with Tween-80) 96 % of control; (dose: 200.0 mg/kg/injection, schedule: Q04DX003 (ip), vehicle: saline) 88 % of control; (dose: 400.0 mg/kg/injection, schedule: Q01DX009 (ip), vehicle: saline with Tween-80) 100 % of control; (dose: 400.0 mg/kg/injection, schedule: Q04DX003 (ip), vehicle: saline) 94 % of control.
